A word on the IC50: it is the concentration at which inhibition is half-maximal.

Entries after “also recorded” stand apart in the source; their conditions may differ.

Series [1] concerns normal breast cells (Hs578Bst). The experiment in a line: Normal breast cell viability, CCK-8. It is filed as cell-based. The note with it: different concentrations, 24 h of treatment. On the procedure: Three compounds (cell inhibition IC50 values < 50 μM) were further tested on the normal breast cell (Hs578Bst) to study the effect on cell proliferation and thus verify the toxicity of normal cells. CCK-8 (Cell Counting kit-8) assays were utilized to determine the effects of different concentrations of three compounds on normal breast cell viability after 24 h of treatment.
(§1) All cells were obtained from ATCC (Manassas, VA, USA). The HER2-overexpression SKBR3 cell line and BT474 cell line were cultured in RPMI (Roswell Park Memorial Institute medium) 1640 medium and supplemented with 10% FBS (fetal bovine serum). In addition, 100 U/mL of Penicillin and Streptomycin were added. The cell cultures were maintained at 37 °C in a humidified atmosphere of 5% CO2. Cells were seeded at density 2 × 10^4/mL in 96-well plates per well. The medium was removed after seeding 24 h. The compounds were dissolved in DMSO (dimethyl sulfoxide) and diluted with medium to different concentrations. Then, 20 µL of the selected compounds solution were added in 96-well plates, and incubation continued for 48 h at 37 °C in a humidified atmosphere of 5% CO2. After that, the medium was removed, 90 µL of fresh medium and 10 μL of CCK-8 [54] (Dojindo Molecular Technologies Inc., Kumamoto, Japan) was added to each well and incubated for additional half hour. The activity was measured by microplate reader. Graph Pad Prism 5.0 was used to calculated the IC50 values. The normal breast cells (Hs578Bst) were cultured the same as SKBR3 cells. Cell viability was measured by the CCK-8 assay as previously described.

Series [2] deals with HER2-overexpressing BT474 cell line. As to the kind of experiment: Cell proliferation inhibition, CCK-8. It is filed as cell-based. To be noted: Homo sapiens, BT-474; BT474, 48 h, CCK-8, mean ± SD. On the procedure: as §1
The subject of series [3] is HER2-overexpressing SKBR3 cell line. The experiment in a line: Cell proliferation inhibition, CCK-8. The class given is cell-based. The note with it: Homo sapiens, SK-BR-3; SKBR3, 48 h, CCK-8, mean ± SD. The protocol: as §1
Series [4] addresses T1, HER2 kinase (Homo sapiens, UniProt P04626).
T1 construct: purchased Invitrogen PV3366
The experiment in a line: In vitro HER2 kinase inhibition assay (Invitrogen kit PV3366). It is filed as biochemical. The note with it: HER2 0.20 μg/mL, mean ± SD, read-out: Enzymatic IC50. The protocol: The compounds were tested for HER2 kinase inhibition abilities using an HER2 assay kit (Invitrogen, Carlsbad, CA, USA, PV3366). The kinase kit was obtained from Invitrogen; all compounds were purchased from Thermo Electron Corporation (Walthan, MA, USA). The concentrations of HER2 were set as 0.20 μg/mL. The concentration of selected compounds was set as six gradients (0.0001–10 μM) in DMSO. Firstly, 2.5 μL of ATP solution and 2.5 μL of compound solution was added to the 5.0 μL substrate peptide. Then, the mixture solution on the plate was incubated for 1 h at 25 °C. Next, 5 μL of development solution was added to the well, and the plate was incubated for 1 h at 25 °C. To terminate the reaction, 5 μL of stop reagent was added to plate. The Infinite M100 Pro multi-label reader (Tecan, Männedorf, Switzerland) was used to measure the activity. Graph Pad Prism 5.0 (Graph Pad Software, San Diego, CA, USA) was used to calculate the IC50 values.

T1 sequence (P04626 23-1255): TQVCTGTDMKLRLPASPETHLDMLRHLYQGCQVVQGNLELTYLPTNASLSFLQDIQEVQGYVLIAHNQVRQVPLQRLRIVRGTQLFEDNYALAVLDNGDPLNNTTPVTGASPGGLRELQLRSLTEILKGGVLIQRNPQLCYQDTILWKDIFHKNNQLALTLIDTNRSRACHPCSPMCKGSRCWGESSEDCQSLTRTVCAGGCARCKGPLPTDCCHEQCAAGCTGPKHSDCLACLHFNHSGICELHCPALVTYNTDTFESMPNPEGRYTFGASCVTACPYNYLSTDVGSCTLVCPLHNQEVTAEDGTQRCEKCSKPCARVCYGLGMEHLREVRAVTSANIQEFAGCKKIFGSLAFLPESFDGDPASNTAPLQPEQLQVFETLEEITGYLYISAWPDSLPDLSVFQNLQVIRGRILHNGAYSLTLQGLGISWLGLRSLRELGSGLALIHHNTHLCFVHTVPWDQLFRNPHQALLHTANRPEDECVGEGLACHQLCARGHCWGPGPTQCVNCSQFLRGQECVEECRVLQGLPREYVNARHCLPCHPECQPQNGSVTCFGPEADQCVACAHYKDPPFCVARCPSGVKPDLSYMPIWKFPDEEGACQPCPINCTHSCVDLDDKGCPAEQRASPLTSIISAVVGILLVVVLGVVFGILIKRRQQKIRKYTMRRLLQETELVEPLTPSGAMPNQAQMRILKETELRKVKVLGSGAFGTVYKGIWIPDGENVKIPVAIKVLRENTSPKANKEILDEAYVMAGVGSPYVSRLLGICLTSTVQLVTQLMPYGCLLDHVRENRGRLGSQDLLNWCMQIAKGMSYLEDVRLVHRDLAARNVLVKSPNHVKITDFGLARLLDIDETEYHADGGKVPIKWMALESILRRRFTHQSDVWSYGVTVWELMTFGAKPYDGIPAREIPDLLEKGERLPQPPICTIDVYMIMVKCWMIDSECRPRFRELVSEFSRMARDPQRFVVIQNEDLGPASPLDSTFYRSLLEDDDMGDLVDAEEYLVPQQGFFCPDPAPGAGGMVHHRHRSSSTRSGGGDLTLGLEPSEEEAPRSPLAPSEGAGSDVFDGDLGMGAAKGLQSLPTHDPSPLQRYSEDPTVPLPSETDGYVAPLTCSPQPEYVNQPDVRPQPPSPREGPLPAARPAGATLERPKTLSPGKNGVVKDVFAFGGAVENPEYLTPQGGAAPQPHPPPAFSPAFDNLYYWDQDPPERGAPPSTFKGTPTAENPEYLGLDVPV

`CC(C)=CCC/C(C)=C/Cc1c(O)cc2c(c1O)C(=O)[C@H](O)[C@@H](c1ccc(O)cc1)O2` [ZINC13378641, (2R,3R)-6-[(2E)-3,7-dimethylocta-2,6-dienyl]-3,5,7-trihydroxy-2-(4-hydroxyphenyl)chroman-4-one]: the “cytotoxicity against normal breast cells (cell viability)” value is on record as “little cytotoxicity” in series [1] and “low cytotoxicity” in series [1] (listed as ZINC31178641). Also, the results for the IC50 in series [2], in series [3] and in series [4] were 18.6 ± 2.06 µM, 26.5 ± 1.62 µM and 3.71 ± 0.03 µM, respectively.
On to `CC(C)=CCC/C(C)=C/Cc1c(O)cc2c(c1O)C(=O)CC(c1ccc(O)c(O)c1)O2` (stereo not drawn) [ZINC15122021, 2-(3,4-dihydroxyphenyl)-6-[(2E)-3,7-dimethylocta-2,6-dienyl]-5,7-dihydroxy-2,3-dihydrochromen-4-one], for which the “cytotoxicity against normal breast cells (cell viability)” value in series [1] is recorded as “little cytotoxicity; also recorded: low cytotoxicity”. Further, the 50% inhibitory concentration (IC50) was 4.11 ± 0.95 µM in series [2], 1.22 ± 0.05 µM in series [3] and 0.18 ± 0.002 µM in series [4].
In the same order, the values of `CC(C)=CC[C@@H](O)/C(C)=C/Cc1cc(C(=O)O)cc(C/C=C(\C)CO)c1O` [ZINC31166919, 4-hydroxy-3-[(2E,4R)-4-hydroxy-3,7-dimethyl-octa-2,6-dienyl]-5-[(E)-4-hydroxy-3-methyl-but-2-enyl]be] are “slightly enhanced cytotoxicity with increase of concentration”, 6.78 ± 0.68 µM, 8.61 ± 0.45 µM and 2.63 ± 0.03 µM.
For the molecule `O=C(O)c1cccc(C(=O)CC[C@@H]2O[C@@H](n3cnc4c(=O)[nH]cnc43)[C@@H](O)[C@H]2O)c1` [ZINC35456515, 3-[3-[(2S,3R,4S,5R)-3,4-dihydroxy-5-(6-hydroxypurin-9-yl)tetrahydrofuran-2-yl]propanoyl]benzoic], the results for the IC50 in series [2], in series [3] and in series [4] were greater than 50 µM, greater than 50 µM and greater than 10 µM, respectively.
Regarding `C/C(=C\Cc1cc(C(=O)O)cc(CC[C@H](C)C(=O)/C=C/C(C)(C)O)c1O)CO` [ZINC49181256, 4-hydroxy-3-[(E,3S)-7-hydroxy-3,7-dimethyl-4-oxo-oct-5-enyl]-5-[(E)-4-hydroxy-3-methyl-but-2-enyl]be], the half-inhibitory concentration (IC50) in series [2] is greater than 50 µM; in series [3], greater than 50 µM; in series [4], 9.18 ± 0.01 µM.
`CS(=O)(=O)CCNCc1ccc(-c2ccc3ncnc(Nc4ccc(OCc5cccc(F)c5)c(Cl)c4)c3c2)o1` [lapatinib, Lapatinib, reference compound]: the IC50 came out at 0.45 ± 0.03 µM in series [2] and 0.38 ± 0.02 µM in series [3].

The values above are taken from publication PMC4964431, “Discovery of a Potential HER2 Inhibitor from Natural Products for the Treatment of HER2-Positive Breast Cancer” (International Journal of Molecular Sciences, 2016).
